Calls of active or inactive are those of the source.
Assays:
[1] = biological target: T1, DNA repair protein RAD52 homolog (Homo sapiens, UniProt P43351); assay type: functional, biochemical
T1 sequence (P43351 whole entry): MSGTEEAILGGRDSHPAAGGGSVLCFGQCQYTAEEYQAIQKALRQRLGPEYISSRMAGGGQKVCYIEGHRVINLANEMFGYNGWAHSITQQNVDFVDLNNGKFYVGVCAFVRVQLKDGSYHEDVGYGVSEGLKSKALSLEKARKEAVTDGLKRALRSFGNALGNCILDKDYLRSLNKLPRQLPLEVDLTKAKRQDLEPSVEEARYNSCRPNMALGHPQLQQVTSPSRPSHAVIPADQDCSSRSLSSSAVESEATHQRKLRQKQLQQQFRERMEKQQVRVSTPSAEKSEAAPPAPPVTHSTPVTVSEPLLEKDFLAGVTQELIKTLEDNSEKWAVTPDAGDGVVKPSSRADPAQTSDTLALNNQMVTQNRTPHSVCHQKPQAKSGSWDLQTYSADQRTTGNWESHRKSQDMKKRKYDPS

[2] = system: Vero; assay: cells; assay type: functional; details: Chlorocebus sabaeus
[3] = Trypanosoma cruzi growth suppression in host cells – NIH3T3 host cells, beta-gal luminescence, confirmation (AID 2044); assay type: functional, cell-based;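 also: intracellular parasites grown in NIH/3T3 mouse fibroblasts as host cells; luminescent beta-galactosidase reporter signal from transgenic T. cruzi replicating inside host cells; inhibitors lower the luminescence signal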
[4] = system: Streptococcus; assay: GAS UMAA2166 growth inhibition – luminescence, BacTiterGlo, counter-screen for streptokinase expression inhibitor project, dose response (AID 1915); assay type: functional, organism-based;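 also: potency for reduction of bacterial viability or growth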
[5] = NIH3T3 cell viability loss – ATP luminescence, mouse fibroblasts, counter-screen, dose response (AID 2010); assay type: functional, cell-based;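 also: cells exposed to compound for about 90 hours before reading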
[6] = system: Streptococcus sp. 'group A'; assay: Streptococcus pyogenes SK(-)GAS viability under kanamycin – luminescence, BacTiterGlo, confirmation, counter-screen for streptokinase expression inhibitor project, dose response (AID 1900); assay type: functional, organism-based
[7] = HIV-1 AD8 envelope cell-cell fusion blockers – cherry-pick, dose response (AID 652062); assay type: functional, cell-based;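 also: luciferase signal from cell-cell fusion driven by HIV-1 clade B AD8 Env; potency is for inhibitors of fusion seen as a drop in luminescence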
[8] = blockers of HIV-1 ZM109 envelope-driven cell-cell fusion – HeLa effector, CEM target cells, luciferase, cherry-pick, dose response (AID 652058); assay type: functional, cell-based;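 also: luciferase signal from HIV-1 Env mediated cell-cell fusion of effector and target cells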
[9] = blockers of HIV-1 envelope-mediated cell-cell fusion – cherry-pick, dose response (AID 652057); assay type: functional, cell-based
[10] = biological target: Cytochrome P450 3A4 (Homo sapiens, UniProt P08684); details: Potency;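 also: confirmatory qHTS run detecting inhibitors and substrates of CYP3A4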
[11] = biological target: Prothrombin (Homo sapiens, UniProt P00734); assay: Thrombin 1536 HTS Dose Response Confirmation. [Related pubchem assays: 1046 (Thrombin 1536 HTS; hits were confirmed in this assay)]; assay type: functional
[12] = off-target signal loss in HeLa-CEM21 co-culture – HeLa F-luc CTL cells, cherry-picked, counter-screen for HIV-1 Env fusion inhibitor project, dose response (AID 652040); assay type: functional, cell-based;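 also: potency for signal decrease marking cytotoxic or nonspecific inhibition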
[13] = A549 cell cytotoxicity, dose response, cytotoxicity control, plate reader, cherry-pick, antagonist series (AID 743412); assay type: functional, cell-based
[14] = toxicity toward HepG2 liver cells – cell-based, plate reader, cherry-pick, antagonist series, cytotoxicity control, dose response (AID 743416); assay type: functional
[15] = viability loss in HEK293 cells – cell-based, plate reader, cherry-picked samples, cytotoxicity control, dose response (AID 743446); assay type: functional
[16] = viability of HCT116 lacking mutant beta-catenin – cell-based, human colon tumor, dose response (AID 1045); assay type: functional;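 also: HCT116 colon tumor cells with beta catenin knocked out; cells exposed to compound for 60 hours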
[17] = viability of PTEN-deleted HCT116 cells – cell-based, HCT116 PTEN knockout, dose response (AID 1047); assay type: functional;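 also: HCT116 colon tumor cells with PTEN knocked out; cells exposed to compound for 60 hours before readout; potency for loss of cell viability measured by luminescence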
[18] = cells; assay type: functional, cell-based
[19] = cells; assay type: functional, cell-based; remark: listed apart in the source
[20] = biological target: T2, Methionyl-tRNA synthetase, putative (Trypanosoma brucei brucei, UniProt Q38C91); assay type: functional, Trypanosoma brucei brucei strain 927/4 GUTat10.1
T2 sequence (Q38C91 whole entry): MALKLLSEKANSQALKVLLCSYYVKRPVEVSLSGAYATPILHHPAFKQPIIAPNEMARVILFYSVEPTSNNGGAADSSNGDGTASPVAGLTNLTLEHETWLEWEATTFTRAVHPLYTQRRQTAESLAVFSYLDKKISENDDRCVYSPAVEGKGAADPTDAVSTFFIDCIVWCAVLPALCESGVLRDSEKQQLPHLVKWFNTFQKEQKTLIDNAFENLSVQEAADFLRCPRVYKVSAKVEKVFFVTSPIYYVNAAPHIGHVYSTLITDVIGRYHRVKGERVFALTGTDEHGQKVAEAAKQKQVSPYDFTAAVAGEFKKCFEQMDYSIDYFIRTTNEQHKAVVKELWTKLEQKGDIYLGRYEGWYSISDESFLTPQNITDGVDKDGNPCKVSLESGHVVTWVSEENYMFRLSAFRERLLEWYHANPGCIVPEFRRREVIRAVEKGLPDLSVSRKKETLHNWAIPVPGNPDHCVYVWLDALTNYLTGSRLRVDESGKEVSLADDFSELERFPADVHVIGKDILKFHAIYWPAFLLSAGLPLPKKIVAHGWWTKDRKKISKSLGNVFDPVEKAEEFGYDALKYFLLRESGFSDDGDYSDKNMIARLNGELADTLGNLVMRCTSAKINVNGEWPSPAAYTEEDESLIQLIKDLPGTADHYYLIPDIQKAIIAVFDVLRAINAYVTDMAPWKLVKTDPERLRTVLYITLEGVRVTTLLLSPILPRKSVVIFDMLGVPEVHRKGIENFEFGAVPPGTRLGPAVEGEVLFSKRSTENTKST

[21] = Counterscreen for inhibitors of Trypanosoma brucei methionyl tRNA synthetase (MetRS): Luminescence-based cell-based high throughput dose response assay to identify compounds that are cytotoxic to Jurkat human T lymphocyte cells.; assay type: functional
[22] = biological target: T2, Methionyl-tRNA synthetase, putative; assay type: functional, Trypanosoma brucei brucei strain 927/4 GUTat10.1; remark: listed apart in the source
[23] = Luminescence Cell-Based Dose Retest to Confirm Inhibitors of Cancer Stem Cells. [Related pubchem assays (depositor defined):AID2717, AID2721]; assay type: functional; details: Homo sapiens
[24] = Luminescence Cell-Based Dose Confirmation HTS to Identify Activators of 5'UTR Stem-Loop Driven Alpha-Synuclein mRNA Translation in H4 Neuroglioblastoma Cells. [Related pubchem assays: 1829 (Project Summary), 1814 (Primary HTS)]; assay type: functional
[25] = Luminescence Cell-Based Dose Response HTS to Identify Activators of Luciferase Translation or Activity in H4 […] Cells. [Related pubchem assays: 1829 (Project Summary), 1814 (Primary HTS)]; assay type: functional
[26] = system: H4; assay: Luminescence Cell-Based Dose Response HTS to Identify Activators of 5'UTR Stem-Loop Driven Prion Protein mRNA Translation in H4 Neuroglioblastoma Cells. [Related pubchem assays: 1829 (Project Summary), 1814 (Primary HTS)]; assay type: functional; details: Homo sapiens
[27] = biological target: Large T antigen (Simian virus 40, UniProt P03070); assay type: functional, Betapolyomavirus macacae;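 also: Confirmatory-stage PubChem screen for compounds that inhibit SV40 T antigen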
[28] = biological target: FAD-linked sulfhydryl oxidase ALR (Homo sapiens, UniProt P55789); assay: ALR-catalysed DTT oxidation blockers – biochemical, H2O2 detection, luminescence, cherry-pick, dose response (AID 493248)
Sequence of FAD-linked sulfhydryl oxidase ALR (P55789 whole entry): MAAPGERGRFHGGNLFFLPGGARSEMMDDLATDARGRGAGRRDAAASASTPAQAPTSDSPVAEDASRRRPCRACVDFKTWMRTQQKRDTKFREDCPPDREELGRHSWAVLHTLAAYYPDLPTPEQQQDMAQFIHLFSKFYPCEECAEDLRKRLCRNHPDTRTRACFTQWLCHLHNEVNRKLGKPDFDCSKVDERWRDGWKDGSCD

Sequence of Cytochrome P450 3A4 (P08684 whole entry): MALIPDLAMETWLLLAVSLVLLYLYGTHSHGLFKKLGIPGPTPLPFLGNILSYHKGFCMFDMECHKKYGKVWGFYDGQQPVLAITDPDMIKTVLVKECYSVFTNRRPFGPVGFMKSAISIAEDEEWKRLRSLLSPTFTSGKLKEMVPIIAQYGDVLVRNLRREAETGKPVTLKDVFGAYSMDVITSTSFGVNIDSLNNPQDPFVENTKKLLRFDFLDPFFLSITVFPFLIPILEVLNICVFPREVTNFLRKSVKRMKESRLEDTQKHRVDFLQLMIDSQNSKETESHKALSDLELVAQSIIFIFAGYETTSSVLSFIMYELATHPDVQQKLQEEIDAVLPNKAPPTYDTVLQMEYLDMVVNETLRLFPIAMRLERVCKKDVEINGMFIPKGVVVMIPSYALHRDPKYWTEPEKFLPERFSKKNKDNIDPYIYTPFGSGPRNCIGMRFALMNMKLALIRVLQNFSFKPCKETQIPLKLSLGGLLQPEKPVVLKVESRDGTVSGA
Sequence of Large T antigen (P03070 whole entry): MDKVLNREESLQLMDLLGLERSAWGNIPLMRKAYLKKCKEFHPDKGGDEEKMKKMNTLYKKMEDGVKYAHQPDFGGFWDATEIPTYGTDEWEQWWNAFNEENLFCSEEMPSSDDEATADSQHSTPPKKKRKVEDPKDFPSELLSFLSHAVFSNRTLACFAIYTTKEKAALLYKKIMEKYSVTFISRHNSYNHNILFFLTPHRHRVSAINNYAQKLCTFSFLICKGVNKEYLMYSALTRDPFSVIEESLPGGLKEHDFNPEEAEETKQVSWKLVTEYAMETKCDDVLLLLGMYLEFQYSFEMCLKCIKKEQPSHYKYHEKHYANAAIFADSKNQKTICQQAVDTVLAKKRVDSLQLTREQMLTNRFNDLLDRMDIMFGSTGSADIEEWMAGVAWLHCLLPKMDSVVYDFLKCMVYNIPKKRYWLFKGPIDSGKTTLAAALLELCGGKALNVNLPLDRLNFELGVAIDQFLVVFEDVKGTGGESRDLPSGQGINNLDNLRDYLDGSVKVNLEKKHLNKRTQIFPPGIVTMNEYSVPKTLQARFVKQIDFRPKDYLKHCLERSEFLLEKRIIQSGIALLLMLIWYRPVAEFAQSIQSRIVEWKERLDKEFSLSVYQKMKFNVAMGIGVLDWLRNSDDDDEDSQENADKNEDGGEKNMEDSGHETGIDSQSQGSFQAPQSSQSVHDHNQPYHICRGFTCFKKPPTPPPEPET

SMILES: NCc1cc2c3c(c1)CCCN3CCC2
- AC50 [1]: 1.92 µM (active)

SMILES: COc1ccccc1/C=C/c1ccc2cccc(O)c2n1
- CC50 [2]: > 25 µM (active)
- EC50 [3]: 2.74 µM (active)
- EC50 [4]: 6 µM (active)
- EC50 [5]: > 60 µM (not active)
- EC50 [6]: 1.52 µM (active)

SMILES: CC(C)CC#Cc1ccc2c(c1)O[C@@H](CN(C)S(=O)(=O)c1cccc(F)c1)[C@@H](C)CN([C@@H](C)CO)S2(=O)=O
- AC50 [7]: 11.6 µM (active)
- AC50 [8]: 8.81 µM (active)
- AC50 [9]: 7.21 µM (active)

SMILES: COC(=O)[C@@H]1C[C@H]2CC[C@H](O)C[C@H]2N1Cc1ccc(N2CCOCC2)cc1
- AC50 [10]: 20 µM (inconclusive)

SMILES: C[C@H](CO)N1C[C@H](C)[C@H](CN(C)S(=O)(=O)c2ccccc2F)Oc2ncc(/C=C/c3ccccc3)cc2C1=O
- AC50 [7]: 10.1 µM (active)
- AC50 [8]: 10.2 µM (active)
- AC50 [9]: 3.51 µM (active)

SMILES: CSCc1nc2scc(-c3ccccc3)c2c(=O)[nH]1
- IC50 [11]: > 50 µM (not active)

SMILES: COC(=O)c1cccc(C23CC4(C2)[C@H](CN(Cc2ccc(C(F)(F)F)cc2)[C@@H]4c2ccccc2)C3c2ccc(C(F)(F)F)cc2)c1 (stereo partly drawn)
- AC50 [10]: 12.6 µM (inconclusive)

SMILES: CC(C)N(Cc1nc(-c2ccccc2)no1)C(=O)CN(C)S(=O)(=O)c1ccc(Br)cc1
- AC50 [7]: 20.1 µM (active)
- AC50 [9]: 49.9 µM (active)
- AC50 [12]: 60.4 µM (active)

SMILES: COc1ccccc1N1CCN(C(=O)c2sc3nc(-c4ccc(F)cc4)cn3c2C)CC1
- AC50 [13]: > 52 µM (inactive)
- AC50 [14]: 43.3 µM (active)
- AC50 [15]: 37.1 µM (active)

SMILES: Cc1cc(C(=O)COc2cccc(-n3cnnn3)c2)c(C)n1-c1ccccc1
- EC50 [16]: 77.4 µM (active)
- EC50 [17]: 48.3 µM (active)

SMILES: N=C(N)N/N=C/c1ccc(OCc2ccccc2Cl)cc1
- EC50 [16]: 4.04 µM (active)
- EC50 [3]: 0.539 µM (active)
- AC50 [1]: 16.6 µM (active)
- EC50 [5]: > 60 µM (not active)
- EC50 [17]: 4.14 µM (active)

SMILES: O=C(CNC(=O)c1ccccc1F)OCC(=O)c1c[nH]c2ccccc12
- EC50 [18]: > 29.9 µM (inactive)
- IC50 [19]: > 29.9 µM (inactive)

SMILES: O=C(CNC(=O)OCc1ccccc1)Nc1ccc(Br)cc1C(=O)c1ccccc1Cl
- EC50 [16]: 45.4 µM (active)
- EC50 [17]: 44.5 µM (active)

SMILES: CCN(CC)CCCNC(=O)c1csc(Nc2cccc3ccccc23)n1
- AC50 [1]: 21.9 µM (active)

SMILES: COc1ccc(C2C=C(c3ccc(Br)cc3)Nc3nc(N4C(=O)CCC4=O)nn32)cc1 (stereo not drawn)
- IC50 [11]: > 50 µM (not active)

SMILES: Cc1ccccc1CCN(C(=O)c1csnn1)C(C(=O)NC1CCCC1)c1ccncc1 (stereo not drawn)
- AC50 [7]: < 0.26 µM (active)
- AC50 [8]: 0.742 µM (active)
- AC50 [9]: 0.548 µM (active)
- AC50 [12]: 1.13 µM (active)

SMILES: CCN1C(=O)C(CC(=O)Nc2ccc(OC)cc2)N(CCc2ccc(F)cc2)C1=S (stereo not drawn)
- IC50 [20]: 11.4 µM (inactive)
- IC50 [21]: 61.1 µM (inactive)
- IC50 [22]: 6.2 µM (active)

SMILES: Sc1nnc(COc2ccccc2)n1/N=C/C(Cl)=C/c1ccccc1
- AC50 [23]: 2.32 µM (active)
- EC50 [24]: 6.85 µM (active)
- CC50 [2]: > 25 µM (active)
- EC50 [25]: 12.6 µM (active)
- EC50 [26]: > 120 µM (not active)

SMILES: C#CCSc1nncn1C(=O)/C=C/c1ccccc1
- IC50 [11]: 0.294 µM (active)

SMILES: COc1ccc(C)cc1N1C(=O)C(c2ccccc2)C(c2nc3ccccc3s2)=C1N (stereo not drawn)
- EC50 [16]: 2.48 µM (active)
- AC50 [23]: 4.88 µM (active)
- CC50 [2]: 6.15 µM (active)
- EC50 [17]: 3.06 µM (active)

SMILES: CC(Cc1ccccc1)NC(=O)/C=C/C(=O)O (stereo not drawn)
- EC50 [18]: > 29.9 µM (inactive)
- IC50 [19]: > 29.9 µM (inactive)

SMILES: Cc1ccc(CNC(=O)CSc2n[nH]c3c4cc(F)ccc4nc-3n2)cc1
- IC50 [20]: 119 µM (inactive)
- IC50 [21]: 83.3 µM (inactive)
- IC50 [22]: 0.785 µM (active)

SMILES: Cc1cc(C(=O)CSc2nnnn2C)c(C)n1-c1cccc(F)c1
- IC50 [11]: > 50 µM (not active)

SMILES: O=C(Nc1ccc(O)cc1)c1ccc(NC(=O)C2CCCO2)cc1 (stereo not drawn)
- IC50 [27]: 11.1 µM (active)

SMILES: COc1cccc(S(=O)(=O)N(C)C[C@@H]2Oc3cc(C#CCC(C)C)ccc3S(=O)(=O)N([C@@H](C)CO)C[C@@H]2C)c1
- AC50 [7]: 25.7 µM (active)
- AC50 [8]: 46.1 µM (active)
- AC50 [9]: 20 µM (active)

SMILES: O=C(Nc1ccc(CN2CCS(=O)(=O)CC2)cc1)c1ccc(C(F)(F)F)cc1
- AC50 [7]: 3.22 µM (active)
- AC50 [12]: > 70 µM (inactive)

SMILES: CC(C)(C)[C@H]1C=C(C(=O)NCc2nc3ccccc3[nH]2)O[C@@H](OCCCCO)C1
- IC50 [20]: 6.66 µM (active)
- IC50 [21]: 83.3 µM (inactive)
- IC50 [22]: 2.63 µM (active)

SMILES: NC(=O)Nc1ccc(Nc2ccccc2)cc1
- IC50 [27]: 7.83 µM (active)
- AC50 [28]: 0.916 µM (active)

SMILES: COc1ccccc1NC(=O)N1CCCC1C(=O)NC1CCCCC1 (stereo not drawn)
- IC50 [11]: > 50 µM (not active)

SMILES: Cc1cc2nc(-c3ccc(SCC(=O)Nc4nccs4)nc3)[nH]c2cc1C
- EC50 [16]: 33.3 µM (active)
- EC50 [17]: 19.6 µM (active)

SMILES: COC(=O)[C@@H]1C[C@@]2(O)[C@H](O)[C@H](O)[C@H](O)C[C@H]2N1CC(c1ccccc1)c1ccccc1
- AC50 [10]: 20 µM (inconclusive)

SMILES: CC1CCN(S(=O)(=O)c2cc(C(=O)N3CCN(c4ccccc4)CC3)ccc2Br)CC1
- AC50 [7]: 4.92 µM (active)
- AC50 [8]: 3.22 µM (active)
- AC50 [9]: 40.3 µM (active)

SMILES: OC(c1cc(F)cc(Cl)c1)c1nc(-c2ccc(Cl)cc2)c[nH]1 (stereo not drawn)
- IC50 [20]: 15 µM (inactive)
- IC50 [21]: 56.3 µM (inactive)
- IC50 [22]: 6.73 µM (active)

— ChEMBL document CHEMBL1201862, “PubChem BioAssay data set” (2004)
